# In EPA's ToxValDB 9.5 (doi:10.2903/j.efsa.2011.2018):
# Experiments:
# Aphidius rhopalosiphi = assay: LR50; higher = less toxic; conditions: not reported; mortality
# Folsomia candida = conditions: chronic/long-term; duration: 28 days; mortality
# Tagia sp. = conditions: acute; duration: 14 days; mortality
# Apis mellifera = conditions: acute; duration: 48 hours; dermal; mortality
# Anas platyrhynchos = conditions: short-term; oral; feed; mortality
# Lepomis macrochirus = conditions: acute; duration: 96 hours; mortality
smiles,measurement,setting,value
[O-][n+]1nc(-n2ccnc2)nc2ccc(Cl)cc21 [Triazoxide],LR50,Aphidius rhopalosiphi,> 5.13 g/ha
same,NOEC,Folsomia candida,500 mg/kg
same,LC50,Tagia sp.,> 1000 mg/kg
same,LD50,"Rattus norvegicus; acute, oral, mortality",14 mg/kg-day
same,LOAEL,"Rattus norvegicus; chronic, duration: 2 years, gross pathology",0.05 mg/kg-day
same,NOEL,"Rattus norvegicus; reproduction developmental, no effects",2.04 mg/kg-day
same,NOAEL,"Rattus norvegicus; short-term, duration: 28 days",1.5 mg/kg-day
same,NOAEL,"Rattus norvegicus; subchronic, duration: 90 days, oral, hematological",0.21 mg/kg-day
same,LD50,Apis mellifera,> 200 µg/piece
same,LD50,"Coturnix japonica; acute, oral, mortality",90 mg/kg-day
same,NOEC,"Coturnix japonica; reproduction developmental, duration: 6 weeks",11.7 mg/kg-day
same,LC50,Anas platyrhynchos,268 mg/kg-day
same,LC50,Lepomis macrochirus,0.077 µg/mL
